Consider 7 molecules from patent US4399126A, “Modulators of the complement system” (American Cyanamid Company, priority 1982, dated 1983).

Like-named read-outs stand apart in the source and are kept apart here.

For test [1], the system named is hereditary angioneurotic edema. Conditions: literature reports; cited from earlier work.
In a further test the test system is human serum. The conditions noted are these: in vitro and in vivo, judged by reduction in total hemolytic complement activity; cited from earlier work.
A further test deals with complement system. Conditions: Br. J. Exp. Pathol. 33: 327 (1952); cited from earlier work.
The target in another test is T1, activated human C1 (Homo sapiens, UniProt P09871).
T1 sequence (P09871 16-437 limits assumed): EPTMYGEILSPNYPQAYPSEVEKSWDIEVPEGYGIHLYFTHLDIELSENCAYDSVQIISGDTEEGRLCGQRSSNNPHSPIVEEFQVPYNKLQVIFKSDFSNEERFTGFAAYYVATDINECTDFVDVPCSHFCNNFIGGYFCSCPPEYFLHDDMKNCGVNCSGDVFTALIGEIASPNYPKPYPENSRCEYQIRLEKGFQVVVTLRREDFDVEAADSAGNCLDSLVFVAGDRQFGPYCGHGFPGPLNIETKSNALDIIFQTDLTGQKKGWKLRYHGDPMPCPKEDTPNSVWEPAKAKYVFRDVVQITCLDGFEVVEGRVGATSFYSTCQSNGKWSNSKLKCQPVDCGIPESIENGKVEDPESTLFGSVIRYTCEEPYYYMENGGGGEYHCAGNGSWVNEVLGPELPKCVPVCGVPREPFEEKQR
T1 sequence (P09871 438-688 limits assumed): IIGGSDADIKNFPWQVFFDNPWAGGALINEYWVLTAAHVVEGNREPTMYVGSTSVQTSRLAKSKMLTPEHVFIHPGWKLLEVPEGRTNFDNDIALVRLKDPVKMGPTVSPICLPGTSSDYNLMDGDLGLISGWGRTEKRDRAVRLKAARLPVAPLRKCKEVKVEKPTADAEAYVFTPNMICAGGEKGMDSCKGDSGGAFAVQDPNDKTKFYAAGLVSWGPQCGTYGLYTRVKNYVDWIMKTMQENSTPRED
In words: Test Code 026 (C1 inhibitor). In kind it is biochemical. Conditions: serial twofold dilution assay; higher well number indicates higher activity.

The test system of test [2] is late components of human complement (C3-C9). The test is described as follows: Test Code 035 (C3-C9 inhibitor), lysis of EAC 142. The test is classed as biochemical. Conditions: serial twofold dilution assay; higher well number indicates higher activity.
Test [3] concerns complement activity of sera. The test is described as follows: Guinea Pig Intraperitoneal Test (GPIP). The test is classed as in vivo. Conditions: Cavia porcellus, ip, 200 mg/kg i.p., capillary complement assay. The protocol:
Percent inhibition is calculated by comparison with simultaneous controls.

The mark [4] stands for this setting: blood 2 hours after injection, read-out: in vivo Activity Guinea Pig % Inhibition Intraperitoneal, 2 hours.
Where [5] appears, read: blood 6 hours after injection, read-out: in vivo Activity Guinea Pig % Inhibition Intraperitoneal, 6 hours.
The mark [6] stands for this setting: blood 24 hours after injection, read-out: in vivo Activity Guinea Pig % Inhibition Intraperitoneal, 24 hours.

On to `NCCCCCC(=O)O` [epsilon-aminocaproic acid], for which the “success in the treatment of hereditary angioneurotic edema” value in test [1] is given as “used with success”.

On to pentosan-polysulfoester, for which the “anticomplementary activity on human serum” value in the test with human serum is “anticomplementary activity”.

Turning to `Nc1ccc2cc(S(=O)(=O)[O-])cc(O)c2c1N=Nc1ccc(NC(=O)Nc2ccc(N=Nc3c(N)ccc4cc(S(=O)(=O)[O-])cc(O)c34)c(S(=O)(=O)[O-])c2)cc1S(=O)(=O)[O-].[Na+].[Na+].[Na+].[Na+]` [chlorazol fast pink, 3,3'-ureylenebis-[6-(2-amino-8-hydroxy-6-sulfo-1-naphthylazo)benzenesulfonic acid], tetrasodium salt], the anticomplementary effect result in the test on complement system is recorded as “anticomplementary effect”.

Consider heparin, for which the anticomplementary effect result in the test on complement system is given as “anticomplementary effect”.

Usually inhibition stands for the share of the control response that was lost under treatment. Regarding `O=C(CCCC(=O)Nc1ccc(S[C@@H]2O[C@H](COS(=O)(=O)O)[C@@H](O[C@H]3O[C@H](COS(=O)(=O)O)[C@@H](OS(=O)(=O)O)[C@H](OS(=O)(=O)O)[C@H]3OS(=O)(=O)O)[C@H](OS(=O)(=O)O)[C@H]2OS(=O)(=O)O)cc1)Nc1ccc(S[C@@H]2O[C@H](COS(=O)(=O)O)[C@@H](O[C@H]3O[C@H](COS(=O)(=O)O)[C@@H](OS(=O)(=O)O)[C@H](OS(=O)(=O)O)[C@H]3OS(=O)(=O)O)[C@H](OS(=O)(=O)O)[C@H]2OS(=O)(=O)O)cc1.[Na].[Na].[Na].[Na].[Na].[Na].[Na].[Na].[Na].[Na].[Na].[Na].[Na].[Na]` [tetradecasodium N,N'-bis[4-[2,3,6-tri-O-sulfo-4-O-(2,3,4,6-tetra-O-sulfo-α-D-glucopyranosyl)-β-D-glucopyranosylthio]phenyl]pentanediamide], the “in vitro Activity Cl 026 Wells” value on activated human C1 is recorded as 9.9 Wells. In test [2], the “in vitro Activity C-Late 035 Wells” value worked out at 1.5 Wells. Also, the figures for the inhibition at 200 mg/kg in test [3] (setting [4]), in test [3] (setting [5]) and in test [3] (setting [6]) were 90%, 88% and 44%, respectively.

As for `O=C(Nc1ccc(S[C@@H]2O[C@H](COS(=O)(=O)O)[C@@H](O[C@H]3O[C@H](COS(=O)(=O)O)[C@@H](OS(=O)(=O)O)[C@H](OS(=O)(=O)O)[C@H]3OS(=O)(=O)O)[C@H](OS(=O)(=O)O)[C@H]2OS(=O)(=O)O)cc1)C(=O)Nc1ccc(S[C@@H]2O[C@H](COS(=O)(=O)O)[C@@H](O[C@H]3O[C@H](COS(=O)(=O)O)[C@@H](OS(=O)(=O)O)[C@H](OS(=O)(=O)O)[C@H]3OS(=O)(=O)O)[C@H](OS(=O)(=O)O)[C@H]2OS(=O)(=O)O)cc1.[Na].[Na].[Na].[Na].[Na].[Na].[Na].[Na].[Na].[Na].[Na].[Na].[Na].[Na]` [tetradecasodium N,N'-bis[4-[2,3,6-tri-O-sulfo-4-O-(2,3,4,6-tetra-O-sulfo-α-D-glucopyranosyl)-β-D-glucopyranosylthio]phenyl]ethanediamide], the “in vitro Activity Cl 026 Wells” value on activated human C1 was 9.5 Wells. In addition, the “in vitro Activity C-Late 035 Wells” value in test [2] was 1.2 Wells. The inhibition at 200 mg/kg in test [3] (setting [4]) is 90%; in test [3] (setting [5]), 90%; in test [3] (setting [6]), 80%.

Regarding `NC[C@H]1CC[C@H](C(=O)O)CC1` [tranexamic acid], the “success in the treatment of hereditary angioneurotic edema” value in test [1] is “used with success”.
